Source: article PMC9981942, “Pharmacokinetics and tissue distribution of Ramulus Mori (Sangzhi) alkaloids in rats and its effects on liver enzyme activity” (Frontiers in Pharmacology, 2023)
Like-named read-outs stand apart in the source and are kept apart here.

Columns and labels:
[1] = parameters: method as in Mackay et al., 2003; conditions: rats; ref Mackay et al., 2003; cited from earlier work
[2] = Tissue distribution after single oral SZ-A (40 mg/kg) in SD rats, plasma and 12 tissues; assay type: in vivo
Protocol: Twenty SD rats were randomly classified into four groups corresponding to four-time points (5 and 30 min, 4 and 12 h) (n = 20; 5 animals per time point) that received SZ-A solution (40 mg/kg) via oral administration. After the completion of dose administration, plasma and tissue samples (derived from the heart, liver, spleen, lung, kidney, aortic blood vessels, brown adipose tissue, subcutaneous adipose tissue, abdominal adipose tissue, muscle (thigh skeletal muscle), pancreas, and brain) were collected at predetermined time points. Twenty-eight ICR mice were randomly classified into four groups (n = 7 per group) corresponding to four-time points (5 and 30 min, 4 and 12 h) that received SZ-A solution (20 mg/kg) via oral administration. After the completion of dose administration, tissue samples (derived from the heart, liver, spleen, lung, kidney, aortic blood vessels, brown adipose tissue, abdominal adipose tissue, muscle (thigh skeletal muscle), pancreas, and brain) were collected at predetermined time points.
Collected tissue samples were washed with normal saline. The surface moisture was removed by blotting gently with filter paper, and the weight was recorded. After adding an appropriate amount of normal saline, these tissue samples were ground into homogenates using a cryogenic grinder (JX-CL, Shanghai Jingxin, Shanghai, China). The obtained homogenates were stored at −80°C until LC-MS/MS analysis.
Primary pharmacokinetic parameters, including Cmax, Tmax, area under the plasma concentration-time curve (AUC), t1/2, clearance rate, and the apparent volume of distribution, were calculated using DAS 3.2.8 (Bio Guider Co., Shanghai, China).

[3] = Sprague-Dawley, rat, Kidney, n=5
[4] = Sprague-Dawley, rat, Liver, n=5
[5] = Sprague-Dawley, rat, Pancreas, n=5
[6] = Sprague-Dawley, rat, Plasma, n=5
[7] = Sprague-Dawley, rat, muscle (thigh skeletal muscle), Muscle, n=5
[8] = rat, Abdominal adipose tissue, n=5
[9] = rat, Subcutaneous adipose tissue, n=5

- time of distribution peak in the aortic vessel [2]: ≤ 5 min
- AUC(0-t) ([2]; Aortic blood vessels, n=5): 962 ± 354 ng·h/mL
- CLz ([2]; Plasma, n=5): 1.95 ± 0.26 L/h/kg
- Vz ([2]; Plasma, n=5): 1.61 ± 0.24 L/kg
- half-life ([2]; Sprague-Dawley, rat, Brown adipose tissue, n=5): 40.8 ± 0.6 min
- AUC(0-t) ([2]; Sprague-Dawley, rat, Brown adipose tissue, n=5, read-out: AUC(0-t)): 716 ± 259 ng·h/mL
- Tmax ([2]; Sprague-Dawley, rat, Brown adipose tissue, n=5, read-out: Tmax): 30 min
- Cmax [2, 3]: 13300 ± 2890 ng/mL
- half-life [2, 3]: 165 ± 30.6 min
- AUC(0-t) ([2]; Sprague-Dawley, rat, Kidney, n=5, read-out: AUC(0-t)): 37800 ± 7170 ng·h/mL
- Tmax ([2]; Sprague-Dawley, rat, Kidney, n=5, read-out: Tmax): 30 min
- Cmax [2, 4]: 2070 ± 396 ng/mL
- half-life [2, 4]: 229 ± 44.4 min
- AUC(0-t) ([2]; Sprague-Dawley, rat, Liver, n=5, read-out: AUC(0-t)): 8120 ± 2150 ng·h/mL
- Tmax ([2]; Sprague-Dawley, rat, Liver, n=5, read-out: Tmax): 30 min
- Cmax ([2]; Sprague-Dawley, rat, Lung, n=5): 200 ± 22.3 ng/mL
- half-life ([2]; Sprague-Dawley, rat, Lung, n=5): 31.8 ± 16.2 min
- Tmax ([2]; Sprague-Dawley, rat, Lung, n=5, read-out: Tmax): 13.2 ± 14.4 min
- Cmax [2, 5]: 122 ± 16.9 ng/mL
- half-life [2, 5]: 40.2 ± 2.4 min
- AUC(0-t) ([2]; Sprague-Dawley, rat, Pancreas, n=5, read-out: AUC(0-t)): 854 ± 90 ng·h/mL
- Tmax ([2]; Sprague-Dawley, rat, Pancreas, n=5, read-out: Tmax): 114 ± 115 min
- Cmax [2, 6]: 973 ± 215 ng/mL
- half-life [2, 6]: 34.2 ± 1.2 min
- AUC(0-t) ([2]; Sprague-Dawley, rat, Plasma, n=5, read-out: AUC(0-t)): 2360 ± 349 ng·h/mL
- Tmax ([2]; Sprague-Dawley, rat, Plasma, n=5, read-out: Tmax): 30 min
- Cmax [2, 7]: 188 ± 38.4 ng/mL
- half-life [2, 7]: 929 ± 700 min
- AUC(0-t) ([2]; Sprague-Dawley, rat, muscle (thigh skeletal muscle), Muscle, n=5, read-out: AUC(0-t)): 1550 ± 212 ng·h/mL
- Tmax ([2]; Sprague-Dawley, rat, muscle (thigh skeletal muscle), Muscle, n=5, read-out: Tmax): 67.2 ± 97.2 min
- Cmax [2, 8]: 212 ± 58.2 ng/mL
- half-life [2, 8]: 43.8 ± 3.6 min
- AUC(0-t) ([2]; rat, Abdominal adipose tissue, n=5, read-out: AUC(0-t)): 460 ± 146 ng·h/mL
- Tmax ([2]; rat, Abdominal adipose tissue, n=5, read-out: Tmax): 25.2 ± 11.4 min
- Cmax ([2]; rat, Aortic blood vessels, n=5): 756 ± 536 ng/mL
- half-life ([2]; rat, Aortic blood vessels, n=5): 27.6 ± 14.4 min
- Tmax ([2]; rat, Aortic blood vessels, n=5, read-out: Tmax): 4.8 min
- Cmax ([2]; rat, Brown adipose tissue, n=5): 269 ± 82.8 ng/mL
- Cmax ([2]; rat, Heart, n=5): 114 ± 24.2 ng/mL
- half-life ([2]; rat, Heart, n=5): 42.6 ± 0.6 min
- AUC(0-t) ([2]; rat, Heart, n=5, read-out: AUC(0-t)): 469 ± 213 ng·h/mL
- Tmax ([2]; rat, Heart, n=5, read-out: Tmax): 72 ± 94.2 min
- AUC(0-t) ([2]; rat, Lung, n=5, read-out: AUC(0-t)): 333 ± 108 ng·h/mL
- Cmax ([2]; rat, Spleen, n=5): 144 ± 39.9 ng/mL
- half-life ([2]; rat, Spleen, n=5): 45 ± 4.2 min
- AUC(0-t) ([2]; rat, Spleen, n=5, read-out: AUC(0-t)): 294 ± 87 ng·h/mL
- Tmax ([2]; rat, Spleen, n=5, read-out: Tmax): 30 min
- Cmax [2, 9]: 112 ± 41.5 ng/mL
- half-life [2, 9]: 44.4 ± 1.8 min
- AUC(0-t) ([2]; rat, Subcutaneous adipose tissue, n=5, read-out: AUC(0-t)): 232 ± 75 ng·h/mL
- Tmax ([2]; rat, Subcutaneous adipose tissue, n=5, read-out: Tmax): 30 min
- Tmax ([2]; rat, other tissues (not named), tissues not named separately for that alkaloid, read-out: time of peak concentration in other tissues (converted)): 30 min
- accumulation in tissues ([2]; up to 12 h): no long-term accumulation
SMILES: OC[C@H]1NC[C@@H](O)[C@@H]1O [DAB, 1,4-dideoxy-1,4-imino-D-arabinitol]
- form excreted [1]: mainly excreted unchanged
- tissues with the highest concentrations [2]: kidney, followed by the liver, aortic vessels, and brown adipose tissue
